“Also recorded” adds a separate entry of the source. Where two headings read alike, the source gives them in different places.
Experiments:
[1] = molecular target: T1, human liver CE (hCE1) (Homo sapiens, UniProt P23141); assay: CPT-11 conversion assay, COS-7 cells expressing hCE1; type: in vitro ADME; conditions: plasmid pCIHUMCAR, enzyme hCE1
T1 construct: expressed in transfected cells; host or cells: COS-7 (sonicates of transiently transfected cells)

[2] = system: Rh30pIRESrabbit xenografts (expressing rabbit CE); assay: Rh30pIRESrabbit rhabdomyosarcoma xenografts in SCID mice; type: in vivo; conditions: 2.5 mg CPT-11/kg/day, 5 days/week for 2 weeks, every 21 days, three cycles
Description: (§1) The tumor growth rate is depicted on the Y-axis of each graph in terms of tumor volume and is plotted as a function of time in weeks (X-axis).
(§2) In this preclinical model, expression of the transfected cDNA for rabbit CE was maintained for at least 12 weeks.
(§3) Experiments were performed in this model to compare the responses of mice bearing human Rh30 and Rh30pIRESrabbit xenografts. Rh30 rhabdosarcoma xenografts were transfected with pIRESneo plasmid containing the cDNA for rabbit liver CE and selected with G418. Expression of CE was confirmed by biochemical assay using the CE substrate o-NPA and maintained for at least 12 weeks. Two groups of SCID mice were then injected with the transfected Rh30pIRESrabbit cells subcutaneously into the flanks. A third group of control mice was injected in identical fashion with Rh30 cells not transfected with the plasmid.

[3] = system: CEs purified from human tissues; conditions: cited from earlier work
[4] = system: pig liver CE; assay: CPT-11 metabolism by commercially available pig liver CE; conditions: commercially available partially purified pig liver CE
Excerpt: (§4) This screening included enzymes from a series of sera, cell extracts and commercially available CEs using a rapid fluorometric assay.

[5] = system: Rh18 RMS xenografts; conditions: cited from earlier work
[6] = system: COS-7 cells transfected with the parent plasmid; assay: Growth inhibition, COS-7 cells transfected with parent plasmid; type: cell-based, monkey; conditions: Primates, read-out: IC50 (CPT-11); COS-7 cells transfected with the parent plasmid (pCEneo)
Description: (§5) Growth inhibition assays were performed with COS-7 cells as previously described (Potter et al. 1998 Cancer Res. 52:2646-2651; Danks et al. 1998 Cancer Res. 52:2646-2651,1998). Forty-eight hours after transfection, 5×10^4 cells were plated into 1.5 cm diameter dishes and allowed to attach overnight. […] Cell number was determined by counting using a Coulter Multisyser II (Coulter Electronics, Luton, England) and growth inhibition curves were plotted using Prism software (GraphPad Software Inc., San Diego, Calif.).

[7] = system: COS-7 cells expressing hiCE; assay: Growth inhibition, COS-7 cells expressing hiCE; type: cell-based, monkey; conditions: Primates, read-out: IC50 (CPT-11), 2 h exposure, three days growth
Description: as §5

[8] = system: human NB-1691 xenografts; assay: NB-1691 xenograft model for MRD; type: in vivo, mice; conditions: 10 mg/kg CPT-11 daily for 5 days on two consecutive weeks
Excerpt: However, within 4-6 weeks, tumors are palpable in the exact position where the original xenograft was implanted. Since these tumors arise from cells that survived the initial cycle of chemotherapy, this model therefore mimics results seen in patients following surgical resection of the primary tumor and subsequent regrowth at the same site.

[9] = molecular target: T2, rabbit liver CE (Oryctolagus cuniculus, UniProt P12337); type: in vitro ADME; design: To amplify a full length rabbit CE cDNA, oligonucleotide primers RabNTERM; expressed in transfected cells; host or cells: COS-7 (sonicates of transiently transfected cells); conditions: COS-7 cells, plasmid pCIRAB, enzyme rabbit
T2 sequence (P12337 19-565): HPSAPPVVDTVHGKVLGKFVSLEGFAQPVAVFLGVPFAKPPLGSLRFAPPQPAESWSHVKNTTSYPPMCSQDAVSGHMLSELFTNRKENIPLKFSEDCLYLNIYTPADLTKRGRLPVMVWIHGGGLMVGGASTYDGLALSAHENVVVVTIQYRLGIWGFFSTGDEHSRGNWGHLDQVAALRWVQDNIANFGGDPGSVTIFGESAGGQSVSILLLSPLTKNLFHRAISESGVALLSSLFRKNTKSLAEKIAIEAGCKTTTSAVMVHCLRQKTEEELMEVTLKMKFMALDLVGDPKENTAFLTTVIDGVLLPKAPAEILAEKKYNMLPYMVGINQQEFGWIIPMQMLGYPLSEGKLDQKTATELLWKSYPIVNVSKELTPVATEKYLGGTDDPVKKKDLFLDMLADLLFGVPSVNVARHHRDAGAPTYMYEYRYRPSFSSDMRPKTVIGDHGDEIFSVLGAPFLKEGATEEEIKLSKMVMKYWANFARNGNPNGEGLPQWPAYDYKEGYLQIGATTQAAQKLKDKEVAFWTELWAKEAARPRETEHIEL

[10] = system: U373 glioblastoma xenografts transfected with control plasmid; assay: U373 glioblastoma xenografts with control plasmid in SCID mice; type: in vivo; conditions: U373 xenografts with control plasmid (no rabbit CE), CPT-11 7.5 mg/kg/day, three cycles
Excerpt: (§6) The tumor growth rate is depicted on the Y-axis in terms of tumor volume and is plotted as a function of time in weeks (X-axis). Open circles depict the tumor volume of untreated U373 xenografts expressing rabbit CE. Filled triangles depict the response of control xenografts (no rabbit CE) treated with CPT-11. Filled squares depict the response of cells expressing rabbit CE and treated with CPT-11. […] Each point represents the mean of 14 tumors in 7 individual mice.
(§7) Similar studies were performed employing U373 glioblastoma cells transfected with the pIRESneo plasmid or with pIRESneo containing the cDNA for rabbit liver CE and selected with G418. Expression of CE in the tumor cells was confirmed by biochemical assay using the substrate o-NPA. Cells were injected subcutaneously into the flanks of the SCID mice.

[11] = molecular target: rabbit liver CE (Oryctolagus cuniculus, UniProt P12337); conditions: commercially available partially purified rabbit liver CE
Excerpt: as §4

[12] = system: Rh30 cells; assay: Growth inhibition of Rh30 cells by CPT-11 pre-incubated with rabbit liver CE; type: cell-based, human
Excerpt: Another aspect of the present invention relates to the ability of compositions comprising a polynucleotide encoding a carboxylesterase and a disease-specific responsive promoter of selected tumor cells to sensitize the tumor cells to a chemotherapeutic prodrug. The ability of a rabbit CE or a human intestinal CE of the present invention to sensitize human tumor cells to CPT-11 was examined. Experiments were first performed to confirm that the metabolite produced by the activity of a CE of the present invention is biologically active in vitro. Rh30 cells were exposed to the products of each reaction for one hour and the percentage of growth inhibition was determined. […] Similar confirmatory experiments were performed with COS-7 cells.
Each reaction mixture was then filter-sterilized and Rh30 cells were exposed to drug for one hour, at which time the medium was replaced with drug-free medium containing serum. […] Cells were allowed to grow for 3 cell doubling times and cell numbers were determined.

[13] = system: Cos7 cells expressing rabbit liver CE; assay: Cell survival of Cos7 cells transiently transfected with rabbit CE (pCIRABFL); type: cell-based, monkey; conditions: control Cos7 cells versus Cos7 cells transfected with CE
Excerpt: To confirm that the cDNA encoded CE, the 1.7 kb EcoRI fragment was ligated into pCIneo to generate pCIRABFL and the plasmid transiently transfected into Cos7 cells. pCIneo contains the SV40 origin of replication allowing plasmid amplification in cells expressing the large T antigen, such as Cos7.

[14] = system: U373 glioblastoma xenografts expressing rabbit liver CE; assay: U373 glioblastoma xenografts expressing rabbit CE in SCID mice; type: in vivo; conditions: CPT-11 7.5 mg/kg/day, three cycles
Excerpt: as §6, §7

[15] = system: Rh30 xenografts; assay: Rh30 rhabdomyosarcoma xenografts (no CE) in SCID mice; type: in vivo; conditions: Rh30 xenografts not expressing CE, 2.5 mg CPT-11/kg/day, 5 days/week for 2 weeks, every 21 days, three cycles
Description: as §1, §2, §3

[16] = molecular target: topoisomerase I (Homo sapiens, UniProt P11387); conditions: cited from earlier work
topoisomerase I, sequence (P11387 whole entry): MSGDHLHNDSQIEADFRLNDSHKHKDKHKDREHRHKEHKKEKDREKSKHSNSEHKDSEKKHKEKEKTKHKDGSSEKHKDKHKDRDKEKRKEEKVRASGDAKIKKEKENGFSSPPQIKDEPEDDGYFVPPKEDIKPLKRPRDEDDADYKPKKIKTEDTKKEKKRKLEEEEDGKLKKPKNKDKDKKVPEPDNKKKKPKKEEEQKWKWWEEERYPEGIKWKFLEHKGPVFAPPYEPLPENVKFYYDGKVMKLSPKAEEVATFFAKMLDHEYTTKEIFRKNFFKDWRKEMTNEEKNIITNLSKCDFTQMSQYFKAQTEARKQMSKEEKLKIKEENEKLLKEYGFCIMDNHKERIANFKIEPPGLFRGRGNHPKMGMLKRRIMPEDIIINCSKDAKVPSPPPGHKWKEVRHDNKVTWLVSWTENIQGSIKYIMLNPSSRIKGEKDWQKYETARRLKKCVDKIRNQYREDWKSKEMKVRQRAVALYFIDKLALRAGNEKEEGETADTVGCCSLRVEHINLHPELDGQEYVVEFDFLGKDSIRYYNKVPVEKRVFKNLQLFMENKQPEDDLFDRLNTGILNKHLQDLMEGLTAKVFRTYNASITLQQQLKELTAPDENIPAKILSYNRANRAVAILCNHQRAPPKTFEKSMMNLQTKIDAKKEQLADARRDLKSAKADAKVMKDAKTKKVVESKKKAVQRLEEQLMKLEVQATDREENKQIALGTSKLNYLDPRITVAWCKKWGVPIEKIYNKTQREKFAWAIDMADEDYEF

[17] = in humans; cited from earlier work
[18] = molecular target: T2, rabbit liver CE; type: biochemical; design: To amplify a full length rabbit CE cDNA, oligonucleotide primers RabNTERM; expressed in transfected cells; conditions: in vitro, rabbit CE (FIG. 6)
Excerpt: FIG. 6 is a linegraph showing the conversion of APC, depicted on the X-axis at nanomolar concentrations, to SN-38, depicted on the Y-axis at nanomolar concentrations, in vitro by the activity of rabbit liver CE given at doses of 0 (filled cross), 10 (filled hexagon), 25 (filled triangle), 50 (filled circle) or 100 (filled square) units. Data presented represent the mean response at each dose level.
(§8) No known human enzyme activates APC. […] Thus, the combination of APC and sensitization of selected tumor cells with rabbit liver CE as described above can be used to produce a tumor-specific cell death while greatly minimizing the toxic side effects associated with administration of chemotherapy.

[19] = system: U-373 glioma cells expressing rabbit liver CE; assay: Growth inhibition by APC, U-373 glioma cells expressing rabbit liver CE; type: cell-based, human; conditions: U-373 cells expressing rabbit liver CE, 2 h exposure (FIG. 7)
Description: FIG. 7 is a linegraph showing a comparison of the sensitization, depicted as % survival on the Y-axis, of U-373 glioma cells exposed to APC, depicted as log[APC] at concentrations from 10^−8 to 10^−5 M on the X-axis, from in situ expression of rabbit liver CE (filled squares) and human alveolar macrophage CE (filled circles). Cells were exposed for 2 hours to APC.
as §8

T1 sequence (P23141 18-567): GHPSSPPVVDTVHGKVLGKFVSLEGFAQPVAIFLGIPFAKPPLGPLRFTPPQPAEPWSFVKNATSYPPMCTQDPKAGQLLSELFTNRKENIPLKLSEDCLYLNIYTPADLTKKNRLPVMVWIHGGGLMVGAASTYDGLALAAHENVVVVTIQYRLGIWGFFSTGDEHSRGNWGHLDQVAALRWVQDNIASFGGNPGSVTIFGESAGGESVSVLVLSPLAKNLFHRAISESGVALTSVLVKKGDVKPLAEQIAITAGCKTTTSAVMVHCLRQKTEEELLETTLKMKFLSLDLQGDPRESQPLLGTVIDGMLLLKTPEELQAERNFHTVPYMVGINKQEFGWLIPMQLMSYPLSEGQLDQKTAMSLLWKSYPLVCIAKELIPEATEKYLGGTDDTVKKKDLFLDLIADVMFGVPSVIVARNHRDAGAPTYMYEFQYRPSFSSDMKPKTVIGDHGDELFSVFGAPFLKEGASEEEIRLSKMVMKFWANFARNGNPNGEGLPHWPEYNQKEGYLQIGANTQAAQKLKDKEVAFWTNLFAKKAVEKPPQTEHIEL

## CCc1c2c(nc3ccc(OC(=O)N4CCC(N5CCCCC5)CC4)cc13)-c1cc3c(c(=O)n1C2)COC(=O)[C@]3(O)CC [CPT-11, 7-ethyl-10-[4-(1-piperidino)-1-piperidino]carbonyloxycamptothecin]
[1]
  CPT-11 Conversion: 9.6 pmol/h/mg
[2]
  tumor response: regressed completely and did not regrow during the 12 weeks of the study; also recorded: complete tumor regression, even out to 12 weeks
[3]
  prodrug converted to active drug (SN-38): less than 5%
[4]
  metabolism of CPT-11: metabolized CPT-11 efficiently
[5]; 10 mg/kg/day, same schedule
  tumor response: only partial tumor regression
[5]; 20 mg of CPT-11/kg/day daily for 5 days for two weeks
  tumor response: complete regression
[6]
  IC50: 5.4 µM
[7]
  IC50: 0.5 µM
[8]
  time until tumors are palpable again at the original site: 4-6 weeks
  tumor response: complete regression of the tumor
[9]
  CPT-11 Conversion: 2323.0 pmol/h/mg
[10]
  tumor response: stable disease with no significant regression; also recorded: stable disease but no significant regression
[11]
  metabolism of CPT-11: metabolized CPT-11 efficiently
[12]; Homo sapiens, Rh30, 1 h, read-out: inhibition of cell growth
  inhibition at 1 µM: 30 to 60%
[12]; Rh30 cells, 1 to 5 units of CE inactivated by heating
  inhibition of cell growth: no inhibition of cell growth
[13]
  difference in sensitivity to CPT-11 (% cell survival, FIG. 5): approximately 350 fold
[14]
  tumor response: regressed completely; also recorded: tumor regression was seen only in treated cells expressing rabbit CE
[15]
  tumor response: regressed only transiently, regrowing within one week after CPT-11 treatment had stopped; also recorded: initial regression but regrowth; also recorded: regressed only transiently with CPT-11 treatment, with regrowth occurring within one week after CPT-11 treatment stopped

## CCc1c2c(nc3ccc(O)cc13)-c1cc3c(c(=O)n1C2)COC(=O)[C@]3(O)CC [SN-38, 7-ethyl-10-hydroxy-camptothecin]
[16]
  inhibition of topoisomerase I: potent inhibitor of topoisomerase I

## CCc1c2c(nc3ccc(OC(=O)N4CCC(NCCCCC(=O)O)CC4)cc13)-c1cc3c(c(=O)n1C2)COC(=O)[C@]3(O)CC [APC]
[17]
  conversion to an active metabolite: not converted to an active metabolite in humans
[18]
  conversion of APC to SN-38: converted to SN-38 in a concentration-dependent manner
[19]
  sensitization to growth inhibitory effects of APC: sensitized to the growth inhibitory effects of APC

From patent US7452717B2, “Compositions and methods for sensitizing and inhibiting growth of human tumor cells” (St. Jude Children's Research Hospital, priority 1998, dated 2008)
